Assay in all cases: Cell growth inhibitory effect, cell counting kit 8, 6 days
Holding throughout (assay type): cell-based
For orientation: Formazan colour is commonly taken as a measure of viable cells.

Assay [1] relates to HuH28, a human liver cancer cell line. As to conditions: 144 h, HuH28 cells, 6 days incubation. The text has this:
(§1) Cell growth inhibitory effect on human mesothelioma, human liver cancer, human ovarian cancer, and […]
(§2) NCI-H226 cells, a human mesothelioma cell line (ATCC, CRL-5826), NCI-H322 cells, a human lung cancer cell line (the European Collection of Authenticated Cell Cultures, 95111734), OVTOKO cells, a human ovarian cancer cell line (JCRB cell bank, JCRB1048) and HuH28, a human liver cancer cell line (JCRB cell bank, JCRB0426) were each subcultured by keeping the cell density under 80% in a RPMI1640 culture medium with 10% fetal bovine serum (FBS). NCI-H226 cells, NCI-H322 cells and SSP-25 cells were each suspended in the RPM11640 culture medium mentioned above, and plated to a 96-well flat-bottom plate at 500 cells/well in each well, and incubated at 37° C. in an incubator with 5% CO2 for one day. After the incubation, the evaluation of cell growth inhibitory activity was started. OVTOKO cells were suspended in the RPMI1640 culture medium mentioned above, and plated to a 96-well flat-bottom plate at 250 cells/well in each well, and incubated it at 37° C. in an incubator with 5% CO2 for one day. After the incubation, the evaluation of the cell growth inhibitory activity was started. The next day, a test compound was serially diluted to 5 times of its final concentration in the RPM11640 culture medium mentioned above, and the diluted solution was added to each well. In this case, the final concentration of DMSO in each well was adjusted to 0.1%. After the test compound was added, cells were incubated at 37° C. in an incubator with 5% CO2 for 6 days. At the addition of the test compound and 6 days after the addition, the cell counting measurement was performed using a cell counting kit 8 (made by DOJINDO) according to a protocol equivalent to DOJINDO's recommendation. A reagent contained in the kit was added to each plate and color reaction was performed for 2 or 3 hours at 37° C. in an incubator with 5% CO2. After the reaction, an absorbance at wavelength of 450 nm was measured using a microplate reader. A growth inhibition rate was calculated according to the following formula, from which the concentration of a test compound at which cell growth was inhibited by 50% (GI50 value) was determined.

For assay [2], the system named is NCI-H226 cells, a human mesothelioma cell line. As to conditions: 144 h, 6 days incubation.
From the text: as §1, §2

In assay [3] the test system is NCI-H322 cells, a human lung cancer cell line. As to conditions: 144 h, 6 days incubation.
From the text: as §1, §2

Setting [4] is: group 100 nmol/L to 1 μmol/L (upper bound given in μmol/L).

As usually defined, the GI50 is the concentration giving 50% growth inhibition.

As for `C=CC(=O)NC1CCOc2c1ccc(Oc1ccc(C(F)(F)F)cc1)c2F` (racemic) [Compound 31, N-[8-Fluoro-7-{4-(trifluoromethyl)phenoxy}chroman-4-yl]acrylamide], the values for the GI50 in assay [1], in assay [2] (group less than 100 nmol/L) and in assay [3] were less than 3000 nM, less than 100 nM and less than 1000 nM, respectively.

Turning to `C=CC(=O)NC1CCOc2c1ccc(Oc1ccc(C(F)(F)F)cc1)c2OC` (racemic) [Compound 33, N-[8-Methoxy-7-{4-(trifluoromethyl)phenoxy}chroman-4-yl]acrylamide], the GI50 in assay [1] is less than 3000 nM; in assay [2] (group less than 100 nmol/L), less than 100 nM; in assay [3] it was less than 1000 nM.

With `C=CC(=O)NC1COc2c(Oc3ccc(C(F)(F)F)cc3)cccc2C1=O` (racemic) [Compound 40, N-[4-Oxo-8-{4-(tolyloromethyl)phenoxy}chroman-3-yl]acrylamide], the GI50 was less than 3000 nM in assay [1], less than 100 nM in assay [2] (group less than 100 nmol/L) and less than 1000 nM in assay [3].

As for `C=CC(=O)N[C@@H]1c2ccc(Oc3ccc(C(F)(F)F)cc3)cc2OC[C@H]1F` (relative stereo) [Compound 22, trans-N-[3-Fluoro-7-{4-(trifluoromethyl)phenoxy}chroman-4-yl]acrylamide], the GI50 was less than 3000 nM in assay [1], less than 100 nM in assay [2] (group less than 100 nmol/L) and less than 1000 nM in assay [3].

`C=CC(=O)N[C@H]1CC[C@@H](Oc2cccc(Cl)c2)c2ncccc21` (relative stereo) [Compound 68, cis-N-{8-(3-Chlorophenoxy)-5,6,7,8-tetrahydroquinolin-5-yl}acrylamide]: the GI50 in assay [1] is less than 3000 nM; in assay [2] (group less than 100 nmol/L), less than 100 nM; in assay [3] it was less than 1000 nM.

As to `C=CC(=O)N[C@H]1CC[C@@H](Oc2ccc(C(F)(F)F)cc2)c2nc(OC)ccc21` (relative stereo) [Compound 179, cis-N-[2-Methoxy-8-{4-(trifluoromethyl)phenoxy}-5,6,7,8-tetrahydroquinolin-5-yl]acrylamide], the GI50 is less than 3000 nM in assay [1], less than 100 nM in assay [2] (group less than 100 nmol/L) and less than 1000 nM in assay [3].

On to `C=CC(=O)N[C@H]1CC[C@@H](Oc2ccc(C(F)(F)F)cc2)c2nc(C3CC3)ccc21` (relative stereo) [Compound 185, cis-N-[2-Cyclopropyl-8-{4-(trifluoromethyl)phenoxy}-5,6,7,8-tetrahydroquinolin-5-yl]acrylamide], for which the figures for the GI50 in assay [1], in assay [2] (group less than 100 nmol/L) and in assay [3] were less than 3000 nM, less than 100 nM and less than 1000 nM, respectively.

As for `C=CC(=O)N[C@H]1CC[C@@H](Oc2ccc(C(F)(F)F)c(F)c2)c2nc(Cl)ccc21` (relative stereo) [Compound 187, cis-N-[2-Chloro-8-{3-fluoro-4-(trifluoromethyl)phenoxy}-5,6,7,8-tetrahydroquinolin-5-yl]acrylamide], the GI50 in assay [1] is less than 3000 nM; in assay [2] (group less than 100 nmol/L) it was less than 100 nM; in assay [3], less than 1000 nM.

Consider `C=CC(=O)N[C@H]1CC[C@@H](Oc2ccc(C(F)(F)F)cn2)c2nc(Cl)ccc21` (relative stereo) [Compound 189, cis-N-(2-Chloro-8-[{5-(trifluoromethyl)pyridin-2-yl}oxy]-5,6,7,8-tetrahydroquinolin-5-yl)acrylamide], for which the GI50 was less than 3000 nM in assay [1], less than 100 nM in assay [2] (group less than 100 nmol/L) and less than 1000 nM in assay [3].

Regarding `C=CC(=O)N[C@@H]1CC[C@H](Oc2ccc(C(F)(F)F)cc2)c2ncc(Cl)cc21` (relative stereo) [Compound 190, N-((5R*,8S*)-3-Chloro-8-(4-(trifluoromethyl)phenoxy)-5,6,7,8-tetrahydroquinolin-5-yl)acrylamide], the GI50 in assay [1] is less than 3000 nM; in assay [2] (group less than 100 nmol/L), less than 100 nM; in assay [3], less than 1000 nM.

Consider `C=CC(=O)NC1CCOc2cc(Oc3ccc(C(F)(F)F)cc3)ccc21` (stereo not shown) [Compound 5, N-[7-{4-(trifluoromethyl)phenoxy}chroman-4-yl]acrylamide], for which the 50% growth inhibitory concentration (GI50) was less than 3000 nM in assay [1], less than 100 nM in assay [2] (group less than 100 nmol/L) and less than 1000 nM in assay [3].

Regarding `C=CC(=O)NC1CCOc2c1ccc(Oc1ccc(C(F)(F)F)cc1)c2C` (stereo not shown) [Compound 28, N-[8-Methyl-7-{4-(trifluoromethyl)phenoxy}chroman-4-yl]acrylamide], the GI50 is less than 3000 nM in assay [1], less than 100 nM in assay [2] (group less than 100 nmol/L) and less than 1000 nM in assay [3].

As to `C=CC(=O)Nc1cncc(Oc2cccc(C(F)(F)F)c2)c1` [Compound 95, N-[5-{3-(Trifluoromethyl)phenoxy}pyridin-3-yl]acrylamide], the GI50 in assay [1] was less than 3000 nM; in assay [2] (group less than 100 nmol/L), less than 100 nM; in assay [3], less than 1000 nM.

`C=CC(=O)Nc1cncc(Oc2ccc(C(F)(F)F)cc2)c1` [Compound 96, N-[5-{4-(Trifluoromethyl)phenoxy}pyridin-3-yl]acrylamide]: the GI50 in assay [1] is less than 3000 nM; in assay [2] (group less than 100 nmol/L), less than 100 nM; in assay [3], less than 1000 nM.

For `C=CC(=O)Nc1cncc(Oc2cncc(C(F)(F)F)c2)c1` [Compound 107, N-(5-[{5-(Trifluoromethyl)pyridin-3-yl}oxy]pyridin-3-yl)acrylamide], the concentration for 50% growth inhibition (GI50) was less than 3000 nM in assay [1], less than 100 nM in assay [2] (group less than 100 nmol/L) and less than 1000 nM in assay [3].

For `C=CC(=O)Nc1cncc(Oc2ccnc(C(F)(F)F)c2)c1` [Compound 108, N-(5-[{2-(Trifluoromethyl)pyridin-4-yl}oxy]pyridin-3-yl)acrylamide], the GI50 is less than 3000 nM in assay [1], less than 100 nM in assay [2] (group less than 100 nmol/L) and less than 1000 nM in assay [3].

Turning to `C=CC(=O)Nc1ccc(Oc2ccccc2)c2ncccc12` [Compound 111, N-(8-Phenoxyquinolin-5-yl)acrylamide], the GI50 in assay [1] is less than 3000 nM; in assay [2] (group less than 100 nmol/L), less than 100 nM; in assay [3] it was less than 1000 nM.

`C=CC(=O)Nc1ccc(Oc2ccccc2)c2nc(C)ccc12` [Compound 112, N-(2-Methyl-8-phenoxyquinolin-5-yl)acrylamide]: the GI50 in assay [1] is less than 3000 nM; in assay [2] (group less than 100 nmol/L), less than 100 nM; in assay [3] it was less than 1000 nM.

With `C=CC(=O)Nc1ccc(Oc2cccc(Cl)c2)c2ncccc12` [Compound 114, N-{8-(3-Chlorophenoxy)quinolin-5-yl}acrylamide], the GI50 was less than 3000 nM in assay [1], less than 100 nM in assay [2] (group less than 100 nmol/L) and less than 1000 nM in assay [3].

In the case of `C=CC(=O)Nc1ccc(Oc2ccc(Cl)cc2)c2nc(C)ccc12` [Compound 117, N-{8-(4-Chlorophenoxy)-2-methylquinolin-5-yl}acrylamide], the GI50 in assay [1] was less than 3000 nM; in assay [2] (group less than 100 nmol/L) it was less than 100 nM; in assay [3] it was less than 1000 nM.

In the case of `C=CC(=O)Nc1ccc(OCC2CCC(F)(F)CC2)c2ncccc12` [Compound 126, N-[8-{(4,4-Difluorocyclohexyl)methoxy}quinolin-5-yl]acrylamide], the values for the GI50 in assay [1], in assay [2] (group less than 100 nmol/L) and in assay [3] were less than 3000 nM, less than 100 nM and less than 1000 nM, respectively.

Consider `C=CC(=O)NCc1ccc(Oc2ccc(Cl)cc2)c2ncccc12` [Compound 134, N-[{8-(4-Chlorophenoxy)quinolin-5-yl}methyl]acrylamide], for which the GI50 in assay [1] is less than 3000 nM; in assay [2] (group less than 100 nmol/L) it was less than 100 nM; in assay [3], less than 1000 nM.

Take `C=CC(=O)NC1COc2c(cc(C(F)(F)F)cc2Oc2ccc(C(F)(F)F)nc2)C1` (stereo not shown) [Compound 162, N-{6-(Trifluoromethyl)-8-[{6-(trifluoromethyl)pyridin-3-yl}oxy]chroman-3-yl}acrylamide]: the GI50 was 100 to 1000 nM in assay [2] (setting [4]) and less than 1000 nM in assay [3].

Regarding `C=CC(=O)NCc1ccc(Oc2ccc(C(F)(F)F)cc2)c2cccnc12` [Compound 216, N-([5-{4-(Trifluoromethyl)phenoxy}quinolin-8-yl]methyl)acrylamide], the 50% growth inhibitory concentration (GI50) in assay [2] (group less than 100 nmol/L) is less than 100 nM; in assay [3], less than 1000 nM.

As for `C=CC(=O)NCc1ccc(Oc2ccc(C(F)(F)F)nc2)c2cccnc12` [Compound 219, N-{(5-[{6-(Trifluoromethyl)pyridin-3-yl}oxy]quinolin-8-yl)methyl}acrylamide], the GI50 is less than 100 nM in assay [2] (group less than 100 nmol/L) and less than 1000 nM in assay [3].

As to `C=CC(=O)NCc1cc(Oc2ccc(C(F)(F)F)cc2)cc2ncccc12` [Compound 220, N-([7-{4-(Trifluoromethyl)phenoxy}quinolin-5-yl]methyl)acrylamide], the GI50 is 100 to 1000 nM in assay [2] (setting [4]) and less than 1000 nM in assay [3].

For `C=CC(=O)NC1COc2c(cccc2Oc2ccc(C(F)(F)F)nc2)C1` (stereo not shown) [Compound 229, N-(8-[{6-(Trifluoromethyl)pyridin-3-yl}oxy]chroman-3-yl)acrylamide], the results for the GI50 in assay [2] (group less than 100 nmol/L) and in assay [3] were less than 100 nM and less than 1000 nM, respectively.

The values above are taken from patent US11332455B2, “α,β-unsaturated amide compound” (KYOWA KIRIN CO., LTD., priority 2015, dated 2022).
